Experimental data published in patent publication US11970437B1, “8-((4-hydroxynaphthalen-1-yl)diazenyl)naphthalene-1,3-disulfonic acid as an antioxidant compound” (KING FAISAL UNIVERSITY, priority 2023, dated 2024).

Assay: DPPH radical scavenging antioxidant test
Assay type: biochemical
Settings: for Inhibition (radical scavenging inhibition): 0.2 mL DPPH (0.75 mM), compound 3 μM in ethanol, 30 minutes in the dark, 517 nm
Method: The antioxidant properties of the 8-((4-hydroxynaphthalen-1-yl)diazenyl)naphthalene-1,3-disulfonic acid compound were studied by adding 0.2 mL DPPH (0.75 mM)) to 8-((4-hydroxynaphthalen-1-yl)diazenyl)naphthalene-1,3-disulfonic acid (III) (3 μM) in ethanol. After 30 minutes of incubation in the dark, the absorbance was read against a blank at 517 nm. Ascorbic acid (vitamin C) was used as standard antioxidants (positive control). A blank sample was prepared by 0.2 ml of DPPH in 3 mL ethanol. A negative control sample was run using ethanol instead of the sample. The radical scavenging inhibition was calculated using the following equation: […]

Row | SMILES | Inhibition (radical scavenging inhibition) [%] | antioxidant potential (vanishing DPPH radical colors at 517 nm) (DPPH in vitro test, vitamin C as positive control)
1 | O=S(=O)(O)c1cc(S(=O)(=O)O)c2c(/N=N/c3ccc(O)c4ccccc34)cccc2c1 [Product III, 8-((4-hydroxynaphthalen-1-yl)diazenyl)naphthalene-1,3-disulfonic acid] | 52 | high potential as an antioxidant compared to vitamin C
2 | O=C1O[C@H]([C@@H](O)CO)C(O)=C1O [vit c, Ascorbic acid, reference compound] | 74 | 
